According to patent publication US20260035387A1 (BIOGEN MA INC., priority 2022, published 2026):
pIC50: −log10 of the molar value.

System: mutant Huntington (HTT) protein
Assay: HTT Mutant HTRF iPSC assay (mHTT protein lowering)
Assay type: cell-based
Conditions: human iPSC derived from a HTT patient with a poly-Q49 mutation

COc1cn2nc(C)cc2cc1NC(=O)c1nc2ccc(N3CCC4(CCCN4C)C3)nc2s1 (centres unmarked) [Compound 116, N-(6-methoxy-2-methylpyrazolo[1,5-a]pyridin-5-yl)-5-(1-methyl-1,7-diazaspiro[4.4]nonan-7-yl)thiazolo[5,4-b]pyridine-2-carboxamide]
pIC50: 6.00 to 7.00

Cc1cn2cc(NC(=O)c3cc4ccc(Nc5ccc6c(c5)N(C)CCN(C)C6)nc4s3)ccc2n1 [Compound 47, 6-((1,4-dimethyl-2,3,4,5-tetrahydro-1H-benzo[e][1,4]diazepin-8-yl)amino)-N-(2-methylimidazo[1,2-a]pyridin-6-yl)thieno[2,3-b]pyridine-2-carboxamide]
pIC50: 5.05 to 6.00

Cc1cn2cc(NC(=O)c3cc4ccc(N5CCN(C)c6ncccc6C5)nc4s3)ccc2n1 [Compound 31, 6-(1-methyl-1,2,3,5-tetrahydro-4H-pyrido[2,3-e][1,4]diazepin-4-yl)-N-(2-methylimidazo[1,2-a]pyridin-6-yl)thieno[2,3-b]pyridine-2-carboxamide]
pIC50: 6.00 to 7.00

COc1cc2nn(C)cc2cc1NC(=O)c1cc2ccc(N3CC[C@@]4(CCCN4C)C3)nc2s1 (single isomer, unassigned) [Compound 223]
pIC50: > 7.00

COc1cc2nn(C)cc2cc1NC(=O)c1cc2ccc(N3CCC(N4CCC4)C3)nc2s1 (centres unmarked) [Compound 234, 6-(3-(azetidin-1-yl)pyrrolidin-1-yl)-N-(6-methoxy-2-methyl-2H-indazol-5-yl)thieno[2,3-b]pyridine-2-carboxamide]
pIC50: > 7.00

COc1c(NC(=O)c2cc3ccc(N4CCC(N5CCC5)C4)nc3s2)cc2cn(C)nc2c1F (racemic) [Compound 180, rac-(R)-6-(3-(azetidin-1-yl)pyrrolidin-1-yl)-N-(7-fluoro-6-methoxy-2-methyl-2H-indazol-5-yl)thieno[2,3-b]pyridine-2-carboxamide]
pIC50: > 7.00

Cc1cn2cc(NC(=O)c3cc4ccc(N5CCN(C)CC5)nc4s3)nc(C)c2n1 [Compound 3, N-(2,8-dimethylimidazo[1,2-a]pyrazin-6-yl)-6-(4-methylpiperazin-1-yl)thieno[2,3-b]pyridine-2-carboxamide]
pIC50: 6.00 to 7.00

COc1cc2nn(C)cc2cc1NC(=O)c1cc2ccc(C3CCN(C)CC3)nc2s1 [Compound 178, N-(6-methoxy-2-methyl-2H-indazol-5-yl)-6-(1-methylpiperidin-4-yl)thieno[2,3-b]pyridine-2-carboxamide]
pIC50: > 7.00

Cc1cn2cc(NC(=O)c3nc4ccc(C5=CC(C)(C)NC(C)(C)C5)nc4s3)cc(F)c2n1 [Compound 132, N-(8-fluoro-2-methylimidazo[1,2-a]pyridin-6-yl)-5-(2,2,6,6-tetramethyl-1,2,3,6-tetrahydropyridin-4-yl)thiazolo[5,4-b]pyridine-2-carboxamide]
pIC50: > 7.00

Cc1cn2cc(NC(=O)c3cc4cnc(N5CC[C@H](N(C)C)C5)nc4s3)nc(C)c2n1 [Compound 151, (S)-2-(3-(dimethylamino)pyrrolidin-1-yl)-N-(2,8-dimethylimidazo[1,2-a]pyrazin-6-yl)thieno[2,3-d]pyrimidine-6-carboxamide]
pIC50: 5.05 to 6.00

Cc1cn2cc(NC(=O)c3cc4ncc(N5CC(C)(N)C5)nc4s3)cc(F)c2n1 [Compound 258, 3-(3-amino-3-methylazetidin-1-yl)-N-(8-fluoro-2-methylimidazo[1,2-a]pyridin-6-yl)thieno[2,3-b]pyrazine-6-carboxamide]
pIC50: > 7.00

Cc1cn2cc(NC(=O)c3cc4ccc(N5C[C@@H](C)N(C)[C@@H](C)C5)nc4s3)ccc2n1 [Compound 18, N-(2-methylimidazo[1,2-a]pyridin-6-yl)-6-((3R,5S)-3,4,5-trimethylpiperazin-1-yl)thieno[2,3-b]pyridine-2-carboxamide]
pIC50: > 7.00

CCN1CCN(c2cnc3cc(C(=O)Nc4cc5cn(C)nc5cc4OC)sc3n2)CC1 [Compound 247, 3-(4-ethylpiperazin-1-yl)-N-(6-methoxy-2-methyl-2H-indazol-5-yl)thieno[2,3-b]pyrazine-6-carboxamide]
pIC50: > 7.00

Cc1cn2cc(NC(=O)c3cc4ccc(OC5CCC6(CCN(C)CC6)C5)nc4s3)cc(F)c2n1 (centres unmarked) [Compound 160, N-(8-fluoro-2-methylimidazo[1,2-a]pyridin-6-yl)-6-((8-methyl-8-azaspiro[4.5]decan-2-yl)oxy)thieno[2,3-b]pyridine-2-carboxamide]
pIC50: 6.00 to 7.00

Cc1cn2cc(NC(=O)c3cc4ccc(N5CCC6CNCC65)nc4s3)nc(C)c2n1 (racemic) [Compound 215, N-(2,8-dimethylimidazo[1,2-a]pyrazin-6-yl)-6-(hexahydropyrrolo[3,4-b]pyrrol-1(2H)-yl)thieno[2,3-b]pyridine-2-carboxamide]
pIC50: > 7.00

Cc1cn2cc(NC(=O)c3cc4ccc(N5CCCN(C)CC5)nc4s3)ccc2n1 [Compound 40, 6-(4-methyl-1,4-diazepan-1-yl)-N-(2-methylimidazo[1,2-a]pyridin-6-yl)thieno[2,3-b]pyridine-2-carboxamide]
pIC50: 6.00 to 7.00

Cc1cn2cc(NC(=O)c3cc4ccc(N5CC[C@@H](N(C)C)C5)nc4s3)nc(C)c2n1 [Compound 51, (R)-6-(3-(dimethylamino)pyrrolidin-1-yl)-N-(2,8-dimethylimidazo[1,2-a]pyrazin-6-yl)thieno[2,3-b]pyridine-2-carboxamide]
pIC50: > 7.00

Cc1cc(NC(=O)c2cc3ccc(N4CCC(N(C)C)C4)nc3s2)cc2cn(C)nc12 (centres unmarked) [Compound 4, N-(2,7-dimethyl-2H-indazol-5-yl)-6-(3-(dimethylamino)pyrrolidin-1-yl)thieno[2,3-b]pyridine-2-carboxamide]
pIC50: 6.00 to 7.00

Cc1cn2cc(NC(=O)c3cc4ccc(OC5CCN(C)C5)nc4s3)cc(F)c2n1 (racemic) [Compound 159, N-(8-fluoro-2-methylimidazo[1,2-a]pyridin-6-yl)-6-((1-methylpyrrolidin-3-yl)oxy)thieno[2,3-b]pyridine-2-carboxamide]
pIC50: > 7.00

Cc1cn2cc(NC(=O)c3cc4ccc(N5C[C@@H]6CNC[C@@H]65)nc4s3)cc(F)c2n1 [Compound 196, 6-((1S,5R)-3,6-diazabicyclo[3.2.0]heptan-6-yl)-N-(8-fluoro-2-methylimidazo[1,2-a]pyridin-6-yl)thieno[2,3-b]pyridine-2-carboxamide]
pIC50: > 7.00

COc1cc2nc(C)cn2cc1NC(=O)c1cc2ccc(N3CC[C@@]4(CCCN4C)C3)nc2s1 (single isomer, unassigned) [Compound 252]
pIC50: > 7.00

CNC1CCN(c2ccc3cc(C(=O)Nc4cc(F)c5nc(C)cn5c4)sc3n2)C1 (centres unmarked) [Compound 238, N-(8-fluoro-2-methylimidazo[1,2-a]pyridin-6-yl)-6-(3-(methylamino)pyrrolidin-1-yl)thieno[2,3-b]pyridine-2-carboxamide]
pIC50: > 7.00

CCN1CCN(c2ccc3nc(C(=O)Nc4cn5cc(C)nc5c(OC)n4)sc3n2)CC1 [Compound 96, 5-(4-ethylpiperazin-1-yl)-N-(8-methoxy-2-methylimidazo[1,2-a]pyrazin-6-yl)thiazolo[5,4-b]pyridine-2-carboxamide]
pIC50: > 7.00

COc1c(NC(=O)c2cc3ccc(C4CCN(C)CC4)nc3s2)cc2cn(C)nc2c1F [Compound 249, N-(7-fluoro-6-methoxy-2-methyl-2H-indazol-5-yl)-6-(1-methylpiperidin-4-yl)thieno[2,3-b]pyridine-2-carboxamide]
pIC50: > 7.00

Cc1cn2cc(NC(=O)c3nc4ccc(N5CCC6(CCN6)C5)nc4s3)cc(F)c2n1 (single isomer, unassigned) [Compound 97]
pIC50: > 7.00

Cc1cn2cc(NC(=O)c3cc4ccc(C5CCNC(C)(C)C5)nc4s3)cc(F)c2n1 (centres unmarked) [Compound 176, 6-(2,2-dimethylpiperidin-4-yl)-N-(8-fluoro-2-methylimidazo[1,2-a]pyridin-6-yl)thieno[2,3-b]pyridine-2-carboxamide]
pIC50: > 7.00

Cc1cn2cc(NC(=O)c3cc4ccc(N5C[C@H]6CN(C)C[C@H]65)nc4s3)nc(C)c2n1 [Compound 218, N-(2,8-dimethylimidazo[1,2-a]pyrazin-6-yl)-6-((1R,5S)-3-methyl-3,6-diazabicyclo[3.2.0]heptan-6-yl)thieno[2,3-b]pyridine-2-carboxamide]
pIC50: > 7.00

Cc1cn2cc(NC(=O)c3cc4ccc(N5CCC(N6CCC6)C5)nc4s3)nc(C)c2n1 (centres unmarked) [Compound 228, 6-(3-(azetidin-1-yl)pyrrolidin-1-yl)-N-(2,8-dimethylimidazo[1,2-a]pyrazin-6-yl)thieno[2,3-b]pyridine-2-carboxamide]
pIC50: > 7.00

Cc1cn2cc(NC(=O)c3cc4ccc(Nc5cccc(N6CC(C)(C)C6)c5)nc4s3)ccc2n1 [Compound 42, 6-((3-(3,3-dimethylazetidin-1-yl)phenyl)amino)-N-(2-methylimidazo[1,2-a]pyridin-6-yl)thieno[2,3-b]pyridine-2-carboxamide]
pIC50: 5.05 to 6.00

COc1c(NC(=O)c2nc3ccc(N4CCC5(CCCN5C)C4)nc3s2)cc2cn(C)nc2c1F (single isomer, unassigned) [Compound 124]
pIC50: > 7.00

Cc1cn2cc(NC(=O)c3cc4ncc(C5CCCCN5)nc4s3)cc(F)c2n1 (centres unmarked) [Compound 144, N-(8-fluoro-2-methylimidazo[1,2-a]pyridin-6-yl)-3-(piperidin-2-yl)thieno[2,3-b]pyrazine-6-carboxamide]
pIC50: 5.05 to 6.00

CCN1CCN(c2ccc3cc(C(=O)Nc4cc5cc(C)nn5cc4OC)sc3n2)CC1 [Compound 183, 6-(4-ethylpiperazin-1-yl)-N-(6-methoxy-2-methylpyrazolo[1,5-a]pyridin-5-yl)thieno[2,3-b]pyridine-2-carboxamide]
pIC50: > 7.00

COc1cc2nn(C)cc2cc1NC(=O)c1cc2ccc(N3CCC(N(C)C)C3)nc2s1 (centres unmarked) [Compound 74, 6-(3-(dimethylamino)pyrrolidin-1-yl)-N-(6-methoxy-2-methyl-2H-indazol-5-yl)thieno[2,3-b]pyridine-2-carboxamide]
pIC50: 6.00 to 7.00

Cc1cn2cc(NC(=O)c3cc4ccc(NCC(C)(C)CN(C)C)nc4s3)ccc2n1 [Compound 41, 6-((3-(dimethylamino)-2,2-dimethylpropyl)amino)-N-(2-methylimidazo[1,2-a]pyridin-6-yl)thieno[2,3-b]pyridine-2-carboxamide]
pIC50: 5.05 to 6.00

CCN1Cc2cccc(Nc3ccc4cc(C(=O)Nc5ccc6nc(C)cn6c5)sc4n3)c2C1 [Compound 46, 6-((2-ethylisoindolin-4-yl)amino)-N-(2-methylimidazo[1,2-a]pyridin-6-yl)thieno[2,3-b]pyridine-2-carboxamide]
pIC50: 5.05 to 6.00
